Laboratory results from patent US20050220895A1, “Use of gallium to treat inflammatory arthritis” (priority 2003, published 2005).
Entries after “also recorded” stand apart in the source; their conditions may differ.

How the values were obtained:
[1] = test system: male Lewis rats with streptococcal (PGPS) cell wall induced arthritis; test: Streptococcal cell wall (PGPS)-induced chronic arthritis model; assay type: in vivo
Protocol: (§1) Two preclinical animal models were tested for oral gallium efficacy in inflammatory polyarthritis; adjuvant-induced acute arthritis and streptococcal cell wall-induced chronic arthritis, respectively. Male Lewis rats were used in both studies. The models are described in detail in Bendele et al. (1999) Toxicologic Pathology 27(1):134-142 and Bendele (2001) J. Musculoskel. Neuron. Interact. 1(4):377-385.
This is a multiple reactivated peptidoglycan-polysaccharide (PGPS)-induced arthritis model. The rapid onset (4-5 days) of arthritic symptoms in this model includes ankle inflammation, bone resorption, mild cartilage destruction.
(§2) Materials and methods: Male Lewis rats (N=12/group) with developing streptococcal (PGPS) cell wall induced arthritis were treated with gallium maltolate (100, 200 or 300 mg/kg, po, qd) or Cyclosporin A (CSA, 5-20 mg/kg) prophylactically beginning 1 day after intra-articular injection of PGPS into the ankles (day −14) and continued for 14 days at which time systemic reactivation was induced by intravenous (iv) injection of PGPS (day 0). Treatment was continued for another 14 days and animals were reactivated a second time (day 14). Following an additional week of treatment, rats were terminated for a total of […] of dosing. Rats were weighed on days (−)13, (−)7, 0, 8, 14 and 21, at which time, dose volumes were adjusted. Right ankle caliper measurements were taken on days 0, 2, 4, 6, 8, 10, 12, 14, 16, 18, 20 and 21. […] All rats had terminal blood samples obtained for PK sampling. Scoring of Joints: PGPS arthritic ankles are given scores of 0-5 (normal to severe) for inflammation, pannus, cartilage damage, bone resorption and periosteal bone proliferation according criteria similar to the acute arthritis study. The primary endpoint is periarticular inflammation and bone resorption as quantitated by ankle caliper measurements and histopathologic evaluation of ankles (scoring of joints).

[2] = test system: male Lewis rats with streptococcal (PGPS) cell wall induced arthritis; test: as above; assay type: in vivo; conditions: 100, 200 and 300 mg/kg daily oral gavage, 35 days
[3] = Serum gallium levels, chronic arthritis study; assay type: in vivo, rat; conditions: Study PG-PS/TT-1, 100 mg/kg, 1% MC suspension, 35 days, pretreatment 13 days, fasted, 1 hour post-dosing
Protocol: as §2
The following data was compiled from the above described model studies. […]

[4] = test system: male Lewis rats with adjuvant-induced acute arthritis; test: Adjuvant-induced acute arthritis model; assay type: in vivo
Protocol: as §1
(§3) Materials and methods: For the adjuvant-induced acute arthritis model, male Lewis rats (7 per group for Gallium Maltolate, 4 per group for normal controls and dexamethasone-treated controls) were injected with 100 μl of Freund's complete adjuvant/lipoidal amine (FCA/LA) subcutaneously at the base of the tail on study day 0 under anesthesia. The rapid onset (within 7 days) of arthritic symptoms in this model includes ankle inflammation, bone resorption, and mild cartilage destruction. Prophylactic treatment was initiated by dosing with control vehicle or Gallium Maltolate (100 or 300 mg/kg) by daily oral gavage, from seven days prior to adjuvant injection until termination. The dexamethasone-treated control animals were administered a daily oral dose of dexamethasone (0.1 mg/kg). Body weights were measured regularly during the course of the study to track the effect of the drugs on the weight loss induced by the developing adjuvant disease, and dose volumes were adjusted accordingly. Prior to the onset of swelling, but after the establishment of systemic disease (about 7 days after adjuvant injection), caliper measurements were made of ankle joints. Ankles were measured every day until 14 days post-adjuvant injection when the rats were anesthetized and euthanized. Serum was harvested one hour after final dosing for gallium quantitation. Hind paws, liver and spleen were weighed, fixed and processed for histopathologic evaluation. Adjuvant arthritic ankles were given scores of 0-5 (0=normal; 5=severe) for inflammation and bone resorption. Splenic changes of inflammation, increased extramedullary hematopoiesis and lymphoid atrophy were scored 0-5 using criteria similar to those used for scoring of inflammation. The primary endpoint is periarticular inflammation and bone resorption as quantitated by ankle caliper measurements and histopathologic evaluation of ankles (scoring of joints). Secondary endpoints include body weight change and the inhibition of splenomegaly and hepatomegaly.

[5] = Serum gallium levels, acute arthritis studies; assay type: in vivo, rat; conditions: for Mean Serum Gallium Concentration: 14 days, 1 hour post-dosing
Protocol: as §3, with “Prophylactic treatment was initiated by dosing with control vehicle or Gallium Maltolate (100 or 300 mg/kg) by daily oral gavage, from seven days prior to adjuvant injection until termination.” left out
The following data was compiled from the above described model studies. All sampling was done 1 hour post-dosing.

[6] = 100 or 300 mg/kg daily oral gavage, both doses

## Cc1occc(=O)c1[O-].Cc1occc(=O)c1[O-].Cc1occc(=O)c1[O-].[Ga+3] [gallium maltolate, tris(3-hydroxy-2-methyl-4H-pyran-4-onato) gallium]
[1]; 300 mg/kg oral
  inflammation after the first reactivation of arthritis on day 0: slight inhibition
[1]; 300 mg/kg, day 12
  ankle swelling, first reactivation: reduced the swelling significantly
[1]; 100, 200 or 300 mg/kg po qd
  bone resorption: Significant dose dependent anti-inflammatory effects
  cartilage (damage): Significant dose dependent anti-inflammatory effects
  histological inflammation scores: dose-related inhibition
  pannus: dose-related effect; also recorded: Significant dose dependent anti-inflammatory effects
  periosteal proliferation: dose-related effect; also recorded: Significant dose dependent anti-inflammatory effects
[1]; 100, 200 or 300 mg/kg po qd, all treated groups
  paw weights after the second reactivation: decreased
[1]; 100, 200 or 300 mg/kg po qd, dose responsive
  inhibition of the sum of the scores for inflammation, pannus, cartilage damage and bone damage (joint histopathology): 20-45%
[1]; gallium maltolate 100, 200 or 300 mg/kg po qd, Cyclosporin A 5-20 mg/kg
  ankle swelling after the second reactivation (flare-up, day 14): decreased ankle swelling
[1]; second reactivation on day 14
  peak effect on ankle swelling, time after the flare-up: ≤ 6 days
  start of decreased ankle swelling after the flare-up: ≤ 2 days
[2]
  safety / signs of toxicity: safe and showed no signs of toxicity; also recorded: safe with no signs of toxicity
[3]
  Mean Serum Gallium Concentration: 2050 ng/mL
[4]; 100 or 300 mg/kg daily oral gavage in 1% methyl cellulose, 14 days, Lewis rats
  safety / signs of toxicity: safe and showed no signs of toxicity; also recorded: safe with no signs of toxicity
[4]; [6]
  bone resorption scores: significant reduction
  liver and spleen hypertrophy (weights): dose-related decrease; also recorded: marked reduction
[4]; gallium maltolate 100 or 300 mg/kg, dexamethasone 0.1 mg/kg, daily oral
  effect on body weight (arthritis-induced body weight loss): favorable effect
[4]; gallium maltolate 100 or 300 mg/kg, dexamethasone 0.1 mg/kg, daily oral, vs disease control
  ankle (joint) inflammation, clinical and histological: reduced ankle inflammation; also recorded: significant reduction; also recorded: Significant dose dependent protection
[4]; oral gallium maltolate
  spleen histopathology: atrophy of the lymphoid tissue: prevented atrophy
  spleen histopathology: inflammation in the spleen: significantly reduced inflammation
[5]; 100 or 300 mg/kg daily oral gavage
  serum gallium levels attained: dose-dependent
[5]; Study LATT-1, 100 mg/kg, solution, pretreatment 1 day, not fasted
  Mean Serum Gallium Concentration: 652 ng/mL
[5]; Study LATT-2, 100 mg/kg, 1% MC suspension, pretreatment 1 day, fasted
  Mean Serum Gallium Concentration: 1350 ng/mL
[5]; Study LATT-2, 300 mg/kg, 1% MC suspension, pretreatment 1 day, fasted
  Mean Serum Gallium Concentration: 3470 ng/mL
[5]; Study LATT-2, 300 mg/kg, 1% MC suspension, pretreatment 7 days, fasted
  Mean Serum Gallium Concentration: 2960 ng/mL
